Reference: PMC9861386, “N-Heterocyclic Carbene-Iridium Complexes as Photosensitizers for In Vitro Photodynamic Therapy to Trigger Non-Apoptotic Cell Death in Cancer Cells” (Molecules, 2023)

Legend:
Type in all cases: cell-based, human
[1] = system: MCF7/FasR cells; test: Cell death with or without pan-caspase inhibitor z-VAD-fmk, MTT; details: 500 nM complex, 10 µM z-VAD-fmk, 458 nm irradiation, 72 h
Description: To determine the mechanism of cell death, we used MCF7 cells transfected to express the human Fas receptor (FasR) or doubly transfected to express the human Fas receptor and human Bcl-xL [75]. Since MCF7 cells express the TNF receptor endogenously, this allowed the study of both Fas- and TNFα-mediated apoptosis in the same cell model to assess whether cell death was dependent on the Bcl-2 family of mitochondrial proteins such as Bcl-xL. […] This is consistent with findings that death receptors such as FasR and TNFR can mediate apoptosis through both the extrinsic pathway (mitochondria-independent by directly activating executioner caspases via upstream caspase-8) and the intrinsic (mitochondrial) pathway controlled by the Bcl-2 family of proteins.
We next evaluated the effect of the pan-caspase inhibitor z-VAD-fmk on caspase signaling. As expected, the treatment with z-VAD-fmk rendered MCF7/FasR cells resistant to TNFα-induced PARP and caspase-7 processing (Figure 14A) and to the loss of cell viability (Figure 14B).
(§1) A tetrazolium-based MTT reagent (3-(4,5-dimethylthiazol-2-yl)-2,5-diphenyltetrazolium bromide) was used to determine cell viability, as previously described. After 72 h of treatment at 37 °C and 5% CO2, cells were incubated with 25 μL MTT solution (5 mg/mL; Sigma-Aldrich) for 4 h. After solubilization with 500 μL of lysis buffer (DMSO), formazan was quantified by spectrophotometry with a microplate reader at 570 nm absorbance (ClarioSTAR, BMG LabTech, Champigny-sur-Marne, France). […] All results were calculated from data obtained in at least three independent experiments.
Figure 11 Bcl-xL and z-VAD-fmk inhibited by Fas- or TNFα-induced cell death in MCF7 cells. […] Cell death was assessed by MTT assay. […]
Figure 14 Evaluation of apoptotic biomarkers. […] (B) Cell viability was evaluated in duplicate samples. Data are expressed as percent (%) of untreated cells and are the means of 3 independent experiments (***, p < 0.0001, NS, not significant).

[2] = system: MCF7/FasR and MCF7/FasR/Bcl-xL cells; test: Bcl-xL dependence of cell death, MTT in MCF7/FasR vs MCF7/FasR/Bcl-xL; details: complexes: 458 nm irradiation, 10 nM to 1 µM, TNFα 100 ng/mL, 72 h
Description: To determine the mechanism of cell death, we used MCF7 cells transfected to express the human Fas receptor (FasR) or doubly transfected to express the human Fas receptor and human Bcl-xL [75]. Since MCF7 cells express the TNF receptor endogenously, this allowed the study of both Fas- and TNFα-mediated apoptosis in the same cell model to assess whether cell death was dependent on the Bcl-2 family of mitochondrial proteins such as Bcl-xL. […]
Mitochondrial outer membrane permeabilization (MOMP), which leads to rapid cell death through the release of mitochondrial proteins (including cytochrome c) that activate executioner caspases, is the critical event in intrinsic apoptosis. […] We then assessed whether the cell death induced by our complexes could be abrogated by the overexpression of Bcl-xL.
as §1, with “After 72 h of treatment at 37 °C and 5% CO2, cells were incubated with 25 μL MTT solution (5 mg/mL; Sigma-Aldrich) for 4 h.” left out, “experiments. […]” for “experiments.”
Figure 13 Evaluation of apoptotic biomarkers. […] (B) MTT, ATP and GSH assays were evaluated in duplicate samples. […]

[3] = system: PC-3 cells; test: Subcellular localization by confocal microscopy with MitoTracker Deep Red; details: 500 nM, 24 h
Description: The intracellular localization of complex 4a was studied by confocal laser scanning microscopy. The treatment of PC-3 (human prostate) cells with complex 4a led to the development of intense fluorescence in the cytoplasm (Figure 9B). Specific subcellular location was investigated by staining the organelles with the specific fluorescent probe MitoTracker Deep Red (Figure 9C). […] However, an accumulation of complex 4a in lysosomes or the endoplasmic reticulum cannot be excluded.
Cell imaging was performed on an LSM 710 NLO-Meta confocal microscope with spectral detection (Zeiss, Göttingen, Germany). Images were taken through a 40×/1.2 W objective. Microscopy imaging experiments were performed with PC-3 cells that were cultured in 6-well plates and on glass slides (180,000 cells per well) for 18 h before incubation with complex 4a at different concentrations (0.25 μM, 0.5 μM and 1 μM) for various times. After 24 h, the MitoTracker deep red probe (Fisher Scientific, Illkirch, France) was incubated on live cells at a final concentration of 200 nM during 15 min at 37 °C in a 5% CO2 humidified incubator and then observed in one pass two channels 440–544 nm for complex 4a (two-photon excitation at 720 nm) and 644–700 nm for MitoTracker (excitation at 633 nm) at the same time. Merged images were generated to evaluate colocalization of the mitochondrial probe with complex 4a. […]

CC(C)[n+]1ccn2[c]1[Ir-3]13([c]4ccccc4-c4cccc[n+]41)([c]1ccccc1-c1cccc[n+]13)[c]1n(cc[n+]1C(C)C)C2.F[P-](F)(F)(F)(F)F [Complex 4a]
effect of z-VAD-fmk on cell death induced by the complex [1]: could not prevent cell death
effect of Bcl-xL overexpression on loss of cell viability [2]: not affected by Bcl-xL overexpression
Pearson colocalization coefficient with MitoTracker Deep Red (mitochondria) [3]: 88%
